Assay type in all cases: cell-based, human
For one assay, the system named is 1205 Lu melanoma cells. Put plainly: MTS cell viability assay, 1205 Lu melanoma cells. The settings on record: free drug in DMSO, 24 hours treatment, read-out: half-maximal inhibitory concentration (IC50), cell viability. The method, then: (§1) Human fibroblast FF2441 cells and metastatic melanoma cell lines UACC 903 and 1205 Lu were maintained in DMEM (Invitrogen), supplemented with 10% FBS (Hyclone). Cell lines were maintained in a 37° C. humidified 5% CO2 atmosphere incubator and periodically monitored for phenotypic and genotypic characteristics, and for tumorigenic potential.
(§2) Viability of fibroblast and melanoma cells (UACC 903 and 1205 Lu) following treatment with ATK, leelamine, nanolipoATK, and nanolipoATK-999 was measured by MTS assay (Promega, Madison, Wis.). Briefly, 5×10^3 melanoma or fibroblast (FF2441) cells were plated per well in 100 μL of media and grown in 96-well plates for 48 hours. Cells were then treated with ATK alone, leelamine alone, nanolipoATK, nanolipolee, or nanoleelATK-999 for 24 hours before measuring cell viability.
(§3) IC50 values were calculated using Prism 4.0 GraphPad Software. Calculsyn software was used to evaluate synergy.
(§4) The melanoma cell lines UACC 903 and 1205 Lu, and normal human fibroblast cells FF2441, were treated with 1 μM, 1.5 μM, 2 μM, 2.5 μM, 3 μM, 3.5 μM, 4 μM, 4.5 μM, or 5 μM leelamine in DMSO. […] IC50 values were calculated using GraphPad Prism software.
(§5) The melanoma cell lines UACC 903 and 1205 Lu were treated with 15 μM, 20 μM, 25 μM, 30 μM, 35 μM, 40 μM, 45 μM, 50 μM, or 55 μM ATK in DMSO. […] IC50 values were calculated using GraphPad Prism software.
(Tetrazolium assays rely on reduction of a dye to a coloured formazan, in cell work by metabolically active cells.)

Assay [1] relates to fibroblast cell line FF2441. Put plainly: MTS cell viability assay, normal fibroblasts FF2441. The settings on record: 1-5 μM leelamine in DMSO, 24 hours. The method, then:
as §1, §2
The melanoma cell lines UACC 903 and 1205 Lu, and normal human fibroblast cells FF2441, were treated with 1 μM, 1.5 μM, 2 μM, 2.5 μM, 3 μM, 3.5 μM, 4 μM, 4.5 μM, or 5 μM leelamine in DMSO. Cells were maintained in DMEM supplemented with 10% FBS and L-glutamine. After 24 hours of treatment, an MTS assay was performed to determine the fractional cell viability relative to the DMSO control. IC50 values were calculated using GraphPad Prism software.

The test system of the next assay is UACC 903 melanoma cells. Put plainly: MTS cell viability assay, UACC 903 melanoma cells. The settings on record: free drug in DMSO, 24 hours treatment, read-out: half-maximal inhibitory concentration (IC50), cell viability. As to the method:
as §1, §2, §3, §4, §5

With `CC(C)c1ccc2c(c1)CC[C@H]1[C@](C)(CN)CCC[C@]21C` [leelamine, (1R,4aS,10aR)-1,2,3,4,4a,9,10,10a-octahydro-1-,4a-dimethyl-7-(1-methylethyl)-1-phenanthrenemethanamine], the IC50 came out at 3.8 µM in the assay on 1205 Lu melanoma cells and 2800 nM in the assay on UACC 903 melanoma cells. Further, the “killing of normal fibroblast cells” value in assay [1] is “did not kill”.

Values taken from patent US9999603B2, “Compositions and methods including leelamine and arachidonyl trifluoromethyl ketone relating to treatment of cancer” (The Penn State Research Foundation, priority 2013, dated 2018).
